Values quoted from earlier work as cited in US20240287015A1, “Method for Producing an Ionizable Lipid” (NanoVation Therapeutics Inc., priority 2021, published 2024).

Conditions: siRNA LNP formulations; MC3 relative to similar KC2-based formulations

## CCCCC/C=C\C/C=C\CCCCCCCCC(CCCCCCCC/C=C\C/C=C\CCCCC)OC(=O)CCCN(C)C [MC3, (6Z,9Z,28Z,31Z)-heptatriacont-6,9,28,31-tetraene-19-yl 4-(dimethylamino)butanoate]
  times less siRNA required than KC2 to attain the same end result: about 3 times
